Laboratory results reported in patent US20120172344A1, “INSULIN-PRODUCING CELL INDUCER, GLUCOSE INTAKE ENHANCER, AND THERAPEUTIC AGENT FOR DIABETES OR DIABETES COMPLICATIONS” (KYUSHU UNIVERSITY, NATIONAL UNIVERSITY CORPORATION, priority 2009, published 2012).

System: muscles (soleus muscle) of Tg23 mice
Experiment: Experimental Example 3: glucose (2-deoxy-D-glucose) intake of soleus muscles
Format: in vivo, mouse
Conditions: isolated soleus muscles of WT and Tg mice incubated in KRB buffer with vs without insulin, 10 minutes at 30° C.
Experimental: Mice were sacrificed, and extensor digitorum longus (EDL) muscles and soleus muscles were quickly removed and processed. Both ends of each of the muscles were tied with suture (silk 4-0), and mounted on an incubation apparatus. First, the muscles were preincubated for 20 minutes in 6 ml of Krebs-Ringer bicarbonate (KRB) buffer (117 mM NaCl, 4.7 mM KCl, 2.5 mM CaCl2, 1.2 mM KH2PO4, 1.2 mM MgSO4, 24.6 mM NaHCO3, pH 7.5) containing 2 mM pyruvate. Then, the muscles were incubated in KRB buffer in presence or absence of insulin.
Immediately after muscle incubation, the muscles were transferred to KRB buffer containing 1 mM 2-deoxy-D-[^3H]glucose (1.5 μCi/ml) and 7 mM D-[^14C]mannitol (0.3 μCi/ml) (PerkinElmer Life Sciences) at 30° C., and incubated again for 10 minutes. When using insulin, a buffer containing insulin was used for incubation in a similar manner.
Glucose transport was terminated by dipping the muscles in KRB buffer containing 80 μmol/L cytochalasin B at 4° C., and then the muscles were frozen in liquid nitrogen. The muscles were weighed, and digested by incubating in 250 μl of 1 M NaOH at 80° C. for 10 minutes. Digests were neutralized with 250 μl of 1 M HCl. […] Radioactivity in aliquots of the digested muscle was determined by liquid scintillation counting for dual labels, and extracellular and intracellular spaces were calculated. […]

insulin
amount of glucose intake of muscles in presence (+) of insulin: increased
